# Target: T1, human TRPV4 (hTRPV4/CHO cells) (Homo sapiens, UniProt Q9HBA0)
# T1 construct: expressed in transfected cells; host or cells: CHO-K1
# Assay: Test Example 1: TRPV4 inhibitory activity (IC50 value), 4α-PDD stimulation, Fluo4 calcium fluorescence (FLIPR TETRA)
# Type: cell-based
# Details: 1 μmol/L 4α-PDD, Fluo4-AM, read-out: TRPV4 inhibitory activity (IC50 value)
# T1 sequence (Q9HBA0 whole entry): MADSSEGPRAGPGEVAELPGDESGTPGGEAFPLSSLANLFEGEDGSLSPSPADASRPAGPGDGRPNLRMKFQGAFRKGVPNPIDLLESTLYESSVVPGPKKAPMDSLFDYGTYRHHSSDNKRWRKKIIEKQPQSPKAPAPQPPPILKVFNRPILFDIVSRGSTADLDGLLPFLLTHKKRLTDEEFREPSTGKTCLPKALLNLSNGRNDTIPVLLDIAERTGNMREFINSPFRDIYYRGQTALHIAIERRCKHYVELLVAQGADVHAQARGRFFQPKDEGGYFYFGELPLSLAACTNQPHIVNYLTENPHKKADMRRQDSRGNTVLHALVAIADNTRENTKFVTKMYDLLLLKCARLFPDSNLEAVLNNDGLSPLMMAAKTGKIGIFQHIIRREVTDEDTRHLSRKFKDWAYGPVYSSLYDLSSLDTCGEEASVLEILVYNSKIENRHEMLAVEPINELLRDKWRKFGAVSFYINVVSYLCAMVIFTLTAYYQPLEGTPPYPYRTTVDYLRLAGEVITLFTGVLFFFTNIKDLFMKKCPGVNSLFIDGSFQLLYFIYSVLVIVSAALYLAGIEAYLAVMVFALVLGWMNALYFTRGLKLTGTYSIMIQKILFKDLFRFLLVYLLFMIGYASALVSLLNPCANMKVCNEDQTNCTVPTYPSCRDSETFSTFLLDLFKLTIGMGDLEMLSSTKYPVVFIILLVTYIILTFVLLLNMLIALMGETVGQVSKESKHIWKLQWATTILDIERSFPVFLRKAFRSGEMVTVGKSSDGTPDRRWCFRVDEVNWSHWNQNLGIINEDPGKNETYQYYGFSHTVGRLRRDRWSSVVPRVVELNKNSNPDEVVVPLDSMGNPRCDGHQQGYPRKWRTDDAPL
row,IC50 [nM],Compound
1,22,Cc1nc(CO)sc1-c1csc(NC(=O)C2CN(c3ccc(C(F)(F)F)cn3)C2)n1 [Compound I-297]

# Same assay, conditions: Test Example 1, 4α-PDD stimulation, read-out: Test 1 IC50
row,IC50 [nM],Compound
1,< 100,COCC1(C(=O)Nc2nc(-c3sc(C)nc3C)cs2)CN(c2ccc(C(F)(F)F)cc2)C1 (racemic) [Compound I-531]
2,100 to 1000,Cc1nc(CO)sc1-c1csc(NC(=O)C2CN(C(=O)OCC(F)(F)F)C2)n1 [Compound I-308]
3,100 to 1000,CN(Cc1nc(CO)sc1-c1csc(NC(=O)Cc2ccc(S(=O)(=O)C(F)(F)F)cc2)n1)C(N)=O [Compound I-391]
4,< 100,Cc1nc(C)c(-c2csc(NC(=O)Cc3ccc(S(=O)(=O)CC(F)(F)F)cc3)n2)s1 [Compound I-141]
5,100 to 1000,Cc1nc(C)c(-c2csc(NC(=O)Cc3cccc(OC(F)(F)F)c3)n2)o1 [Compound I-137]
6,1000 to 8000,Cc1nc(C(F)F)sc1-c1csc(NC(=O)C2CC2)n1 [Compound I-109]
7,100 to 1000,NC(=O)Cc1nc(CO)sc1-c1csc(NC(=O)Cc2ccc(S(=O)(=O)C(F)(F)F)cc2)n1 [Compound I-358]
8,< 100,Cc1nc(CO)sc1-c1csc(NC(=O)[C@H]2C[C@@H](OCc3ccc(Cl)cc3)C2)n1 [Compound I-331]
9,100 to 1000,Cc1nc(CO)sc1-c1csc(NC(=O)C2C[C@H](C(F)(F)F)CN2C(=O)C(F)(F)F)n1 (stereo partly drawn) [Compound I-465]
10,100 to 1000,Cc1nc(CO)sc1-c1csc(NC(=O)[C@H]2C[C@@H](C(F)F)C2)n1 [Compound I-355]
11,100 to 1000,Cc1nc(CO)sc1-c1csc(NC(=O)CN2Cc3ccccc3C2)n1 [Compound I-241]
12,100 to 1000,Cc1nc(C)c(-c2csc(NC(=O)C3CC(c4ccccc4)=NO3)n2)s1 (stereo not drawn) [Compound I-206]
13,< 100,O=C(Nc1nc(-c2sc(CO)nc2CO)cs1)C1CC(Oc2ccc(C(F)(F)F)cc2)C1 (stereo not drawn) [Compound I-330]
14,< 100,Cc1nc(C)c(-c2csc(NC(=O)C3CN(c4ccccc4C(F)(F)F)C3)n2)s1 [Compound I-280]
15,< 100,N#CCc1nc(CO)sc1-c1csc(NC(=O)Cc2ccc(S(=O)(=O)C(F)(F)F)cc2)n1 [Compound I-359]
16,< 100,Cc1nc(C)c(-c2csc(NC(=O)[C@H]3CCN(c4ncc(C(F)(F)F)cn4)C3)n2)s1 [Compound I-388]
17,1000 to 8000,O=C(Nc1nc(-c2cccs2)cs1)C1CC(F)C1 (stereo not drawn) [II-7]
18,100 to 1000,Cc1nc(C)c(-c2csc(NC(=O)[C@@H]3C[C@@H](c4ccccc4)CN3)n2)s1 [Compound I-178]
19,1000 to 8000,Cc1nc(CO)sc1-c1csc(NC(=O)C2CCN(Cc3ccccc3)C2)n1 (stereo not drawn) [Compound I-209]
20,1000 to 8000,Cc1nc(CNS(C)(=O)=O)sc1-c1csc(NC(=O)Cc2ccc(S(=O)(=O)C(F)(F)F)cc2)n1 [Compound I-399]
21,1000 to 8000,Cc1nc(C(C)O)sc1-c1csc(NC(=O)[C@H]2C[C@H](F)C2)n1 (mixture of isomers) [Compound I-298]
22,< 100,Cc1nc(CO)sc1-c1csc(NC(=O)C2CN(c3ccc(C(F)(F)F)cc3)C2)n1 [Compound I-369]
23,< 100,Cc1nc(CO)sc1-c1csc(NC(=O)C2CN(c3ccc(C(F)(F)F)cn3)C2)n1 [Compound I-297]

row,IC50 [nM],Compound
1,1000 to 8000,Cc1nc(CO)sc1-c1csc(NC(=O)[C@H]2C[C@@H](F)C2)n1 [Compound I-203]
2,< 100,Cc1nc(CO)sc1-c1csc(NC(=O)[C@@H]2C[C@@H](c3ccccc3)CN2C(=O)C(F)(F)F)n1 [Compound I-290]
3,100 to 1000,CC(C)(F)C(=O)N1C[C@H](c2ccccc2)C[C@H]1C(=O)Nc1nc(-c2sc(CO)nc2CO)cs1 [Compound I-349]
4,< 100,O=C(Cc1ccc(S(=O)(=O)C(F)(F)F)cc1)Nc1nc(-c2sc(CO)nc2CCN2CCOCC2)cs1 [Compound I-375]
5,100 to 1000,Cc1ccc(-c2csc(NC(=O)C3CC(F)C3)n2)s1 (stereo not drawn) [II-5]
6,< 100,Cc1nc(C)c(-c2csc(NC(=O)C3(CO)CN(c4ccc(C(F)(F)F)cc4)C3)n2)s1 (racemic) [Compound I-532]
7,100 to 1000,O=C(Nc1nc(-c2sc(CO)nc2CO)cs1)C1CN(c2ccccc2)C1 [Compound I-371]
8,< 100,Cc1nc(CO)sc1-c1csc(NC(=O)C2Oc3cc(Cl)c(Cl)cc3O2)n1 [Compound I-273]
9,< 100,Cc1nc(CCO)sc1-c1csc(NC(=O)Cc2ccc(S(=O)(=O)C(F)(F)F)cc2)n1 [Compound I-437]
10,100 to 1000,Cc1nc(C(C)O)oc1-c1csc(NC(=O)Cc2ccc(S(=O)(=O)C(F)(F)F)cc2)n1 (racemic) [Compound I-387]
11,100 to 1000,NC(=O)c1nc(CO)c(-c2csc(NC(=O)C3CN(Cc4ccccc4C(F)(F)F)C3)n2)s1 [Compound I-322]
12,< 100,Cc1nc(CO)sc1-c1csc(NC(=O)Cn2cc(C(F)(F)F)cn2)n1 [Compound I-136]
13,100 to 1000,Cc1nc(C)c(-c2csc(NC(=O)C3Cc4ccccc4N3C)n2)s1 (stereo not drawn) [Compound I-175]
14,100 to 1000,Cc1nc(C)c(-c2csc(NC(=O)C3CCN(S(=O)(=O)c4ccc(F)cc4)CC3)n2)s1 [Compound I-197]
15,100 to 1000,O=C(Nc1nc(-c2sc(CO)nc2CO)cs1)[C@H]1C[C@@H](OCc2ccc(C(F)(F)F)cc2)C1 [Compound I-550]
16,< 100,Cc1nc(CO)sc1-c1csc(NC(=O)C2C[C@H](C(F)(F)F)CN2C(=O)OC(C)(C)C)n1 (stereo partly drawn) [Compound I-448]
17,100 to 1000,Cc1nc(CO)sc1-c1csc(NC(=O)CC2CCN(S(=O)(=O)C(F)(F)F)CC2)n1 [Compound I-453]
18,100 to 1000,Cc1nc(C(F)F)sc1-c1csc(NC(=O)C2CCC(C(F)(F)F)CC2)n1 (stereo not drawn) [Compound I-543]
19,< 100,Cc1nc(C)c(-c2csc(NC(=O)C3(F)CN(c4ccc(C(F)(F)F)cc4)C3)n2)s1 (racemic) [Compound I-533]
20,100 to 1000,CCNCc1nc(C)sc1-c1csc(NC(=O)Cc2c(F)cccc2F)n1 [Compound I-198]
21,1000 to 8000,Cc1nc(CO)sc1-c1csc(NC(=O)C2CC(OCc3ccncc3)C2)n1 (stereo not drawn) [Compound I-240]
22,< 100,Cc1nc(C)c(-c2csc(NC(=O)[C@@H]3C[C@@H](Oc4ccccc4)CN3C(=O)C(F)(F)F)n2)s1 [Compound I-250]

# Second part, the compound before the results:
row,Compound,IC50 [nM]
1,Cc1nc(C)c(-c2csc(NC(=O)Cc3cccc(NC(=O)C(C)C)c3)n2)s1 [Compound I-415],100 to 1000
2,CCOC(=O)c1nc(C)c(-c2csc(NC(=O)C3Oc4cc(Cl)c(Cl)cc4O3)n2)s1 [Compound I-270],100 to 1000
3,Cc1nc(C)c(-c2nc(NC(=O)Cc3c(F)cccc3F)sc2-c2ccccc2O)s1 [Compound I-64],100 to 1000
4,Cc1nc(C)c(-c2csc(NC(=O)Cn3cc(-c4ccncc4)cn3)n2)s1 [Compound I-168],100 to 1000
5,Cc1ccc(-c2csc(NC(=O)Cc3ccc(S(=O)(=O)CC(F)(F)F)cc3)n2)s1 [II-8],100 to 1000
6,Cc1nc(C)c(-c2csc(NCCOc3ccccc3)n2)s1 [II-47],100 to 1000
7,Cc1nc(C)c(-c2csc(NC(=O)C3CC4(C3)CC(F)(F)C4)n2)s1 [Compound I-470],< 100
8,Cc1nc(C)c(-c2csc(NC(=O)Cc3cccc(C(=O)Nc4ccccc4F)n3)n2)s1 [Compound I-505],< 100
9,Cc1nc(C)c(-c2csc(NC(=O)Cn3cc(C4CC4)nn3)n2)s1 [Compound I-430],100 to 1000
10,Cc1nc(C)c(-c2nc(NC(=O)Cc3c(F)cccc3F)sc2C(=O)Nc2ccc(C#N)cc2)s1 [Compound I-84],1000 to 8000
11,Cc1nc(C)c(-c2csc(NC(=O)[C@H]3C[C@@H](c4ccccc4)CN3C(=O)OC(C)(C)C)n2)s1 [Compound I-243],100 to 1000
12,Cc1nc(C)c(-c2csc(NC(=O)C3Cc4ccc(Cl)c(Cl)c4O3)n2)s1 (stereo not drawn) [Compound I-195],< 100
13,Cc1nc(C)c(-c2csc(NC(Cc3ccc(Cl)cc3)C(=O)Nc3ccccc3)n2)s1 (racemic) [II-44],1000 to 8000
14,Cc1nc(C)c(-c2csc(C(=O)NCc3cccc(F)c3)n2)s1 [II-2],1000 to 8000
15,Cc1nc(C)c(-c2csc(NC(=O)Cn3cc(CNC(=O)OC(C)(C)C)nn3)n2)s1 [Compound I-421],1000 to 8000
16,Cc1nc(C)c(-c2csc(NC(Cc3ccc(Cl)cc3)C(=O)NC3CCOCC3)n2)s1 (racemic) [II-46],1000 to 8000

row,Compound,IC50 [nM]
1,CCOC(=O)C(C)(C)N1CC(C(=O)Nc2nc(-c3sc(C)nc3C)cs2)C1 [Compound I-279],1000 to 8000
2,CC(=O)Nc1nc(-c2sc(C)nc2C)cs1 [Compound I-480],1000 to 8000
3,Cc1nc(C)c(-c2csc(NC(=O)C3Cc4cc(S(=O)(=O)N(C)C)c(Cl)c(Cl)c4O3)n2)s1 (stereo not drawn) [Compound I-196],< 100
4,Cc1nc(C)c(-c2nc(NC(=O)Cc3c(F)cccc3F)sc2-c2ccsc2)s1 [Compound I-538],1000 to 8000
5,Cc1nc(C)c(-c2csc(NC(=O)Cc3ccc(F)c(C#N)c3)n2)s1 [Compound I-78],< 100
6,Cc1nc(C)c(-c2nsc(NC(=O)Cc3ccc(C(O)C(F)(F)F)cc3)n2)s1 (stereo not drawn) [Compound I-544],1000 to 8000
7,Cc1nc(C(N)=O)sc1-c1csc(NC(=O)C2CC2(F)F)n1 (stereo not drawn) [Compound I-106],1000 to 8000
8,Cc1nc(C(O)CC(=O)O)sc1-c1csc(NC(=O)Cc2c(F)cccc2F)n1 (stereo not drawn) [Compound I-135],1000 to 8000
9,COc1ccccc1CC(=O)Nc1nc(-c2sc(C)nc2C)cs1 [Compound I-99],< 100
10,Cc1nc(C(=O)N(C)C)sc1-c1csc(NC(=O)Cc2c(F)cccc2F)n1 [Compound I-114],1000 to 8000
11,CCCCCCNC(=O)c1sc(NC(=O)Cc2c(F)cccc2F)nc1-c1sc(C)nc1C [Compound I-87],1000 to 8000
12,Cc1nc(C)c(-c2csc(N(CCCN3CCOCC3)C(=O)Cc3ccc(S(=O)(=O)C(F)(F)F)cc3)n2)s1 [Compound I-364],1000 to 8000
13,Cc1nc(C)c(-c2csc(NC(=O)Cc3cccc(CN(C)C)c3)n2)s1 [Compound I-101],1000 to 8000
14,Cc1nc(C)c(-c2csc(NC(=O)[C@@H]3CC[C@H](c4ccccc4)N3C(=O)OC(C)(C)C)n2)s1 [Compound I-212],< 100
15,Cc1nc(C)c(-c2csc(NC(=O)Cn3cc(-c4ccccc4)nn3)n2)s1 [Compound I-191],< 100
16,Cc1nc(C)c(-c2csc(NC(=O)[C@H](CCc3ccccc3)NC(=O)OC(C)(C)C)n2)s1 [Compound I-266],100 to 1000
